We go through one compound from patent publication US20240315991A1, “USES OF HNF4 ALPHA AGONISTS” (Sanford Burnham Prebys Medical Discovery Institute, priority 2023, published 2024).

The structures appear in SMILES notation.

One data set concerns VDAC1. The experiment in a line: VDAC1 immunofluorescence of liver sections. As to conditions: HFD+NCT vs HFD, FIGS. 3A-3C. The class given is in vivo, mouse. Here is the method: (§1) NCT oral administration. Four-week-old male C57BL/6J (JAX cat #000664) mice were purchased from Jackson laboratory and were maintained in a 12 h light/dark cycle throughout the experiment. Prior to the experiments, mice were acclimated for 2 weeks. Six-week-old mice with similar body weights were randomized to a normal diet (NC), a high fat diet (HFD) (Research Diets, cat #D12492 60 kcal % fat) or HFD containing 4000 ppm NCT (HFD+NCT) (Research Diets, 60 kcal % fat+4000 ppm NCT), which was calculated to provide approximately 400 mg/kg/d NCT. HFD chow containing NCT was made with gray dye to distinguish it from regular HFD chow that had green dye. Mice for each treatment group were placed in separate cages. Equal amounts of fresh chow were provided every week to all mice. Body weight gain and food intake were measured every week for 10 weeks. After 10 weeks of chow treatment, mice were sacrificed for analysis. […]
Immunofluorescence. […] Slides were mounted using fluorescence mounting medium and images were obtained at ×40 magnification using an Olympus IX71 fluorescence microscope. Fluorescence intensity of HNF4α-stained nuclei and VDAC stained mitochondria was calculated using MetaMorph TL software (version 7.6.5.0, Olympus). Fold change was calculated by normalizing to values from mice fed NC.

Another data set relates to citrate synthase. Kind of data set: Citrate synthase activity in liver homogenate. The class given is in vivo, mouse. As to conditions: HFD+NCT vs HFD, FIGS. 3A-3C. Here is the method: as §1, with “analysis. All animal experiments were approved by the Institutional Animal Care and Use Committee (IACUC) of the Sanford Burnham Prebys Medical Discovery Institute in accordance with national regulations.” for “analysis.”
Citrate synthase activity. Citrate synthase activity in liver homogenate was measured according to manufacturer's instructions using a calorimetry based MitoCheck Citrate Synthase Activity Assay Kit (Cat #701040, Cayman Chemicals, USA).

For another data set, the system named is HSP60 mRNA. The experiment in a line: RT-PCR of mouse liver, HSP60. As to conditions: HFD+NCT vs HFD, FIG. 3M. The data set is classed as in vivo. Here is the method:
as §1
(§2) RT-PCR. […] Quantitative real time PCR (RT-PCR) analysis was performed using SYBR® Select Master Mix (Applied Biosystems) and an ABI 7900HT thermal cycler (Applied Biosystems, Thermo Fisher Scientific). Ct values were normalized to 18s rRNA and are expressed as fold change over samples from mice fed NC or cultured human hepatocytes without NCT.

For the next data set, the system named is PPARGC1A mRNA. Kind of data set: RT-PCR of mouse liver, PPARGC1A. The settings on record: HFD+NCT vs HFD, FIGS. 4A-4C. The data set is classed as in vivo. Here is the method:
as §1, §2

A further data set has as its system Sirt1 mRNA. The experiment in a line: RT-PCR of mouse liver, Sirtuin1. The data set is classed as in vivo. The settings on record: HFD+NCT vs HFD, FIG. 4D. Here is the method:
as §1, §2

In another data set the test system is ILIβ mRNA. The experiment in a line: RT-PCR of mouse liver, ILIβ. The data set is classed as in vivo. As to conditions: HFD+NCT vs HFD, FIG. 5C. Here is the method:
as §1, §2

Data set [1] deals with blood alanine transaminase (ALT). The experiment in a line: Liver profile analysis, blood ALT. The data set is classed as in vivo, mouse. The settings on record: mice fed on HFD, HFD+NCT vs HFD, FIG. 5I. Here is the method:
as §1
Liver profile analysis. […] The levels of multiple analytes, including alkaline phosphatase (ALP), alanine aminotransferase (ALT), gamma glutamyl transferase (GGT), bile acids (BA), total bilirubin (TBIL), albumin (ALB), blood urea nitrogen (BUN), total cholesterol (CHOL) were quantified using a VetScan VS2 Chemistry Analyzer (Abaxis North America, USA).

For a further data set, the system named is Sirt3 mRNA. The experiment in a line: RT-PCR of primary human hepatocytes, Sirtuin3. The class given is cell-based. As to conditions: HEP-fat media, NCT 5, 15, and 40 μM, FIG. 4H. Here is the method:
Primary human hepatocytes. Experiments with primary human hepatocytes were performed by CN-Bio (Cambridge, UK). Briefly, primary human hepatocytes (PHHs), human Kupffer cells (HKs) and human stellate cells (HSCs) were seeded onto CN-Bio's PhysioMimix LC12 MPS culture plates at 6×10^5 cells for PHHs and 6×10^4 cells for HKs and HSCs in 1.6 ml of CN-Bio's HEP-lean media with 5% FCS. Throughout the experiment the cells were maintained at a flow rate of 1 μl/s. After 24 hours (Day 1) of seeding, the media was changed to HEP-lean media and the cells were incubated until day 4 to allow the cells to form microtissues. At day 4 post seeding, media was changed to HEP-fat media and treated with DMSO or NCT (5, 15, and 40 μM). Media was replaced on days 6 and 8. Cells were harvested on day 10 for RNA extraction and culture media was collected for ELISA analysis.
as §2

The target in another data set is T1, HNF4α (Homo sapiens, UniProt P41235).
T1 sequence (P41235 1-474): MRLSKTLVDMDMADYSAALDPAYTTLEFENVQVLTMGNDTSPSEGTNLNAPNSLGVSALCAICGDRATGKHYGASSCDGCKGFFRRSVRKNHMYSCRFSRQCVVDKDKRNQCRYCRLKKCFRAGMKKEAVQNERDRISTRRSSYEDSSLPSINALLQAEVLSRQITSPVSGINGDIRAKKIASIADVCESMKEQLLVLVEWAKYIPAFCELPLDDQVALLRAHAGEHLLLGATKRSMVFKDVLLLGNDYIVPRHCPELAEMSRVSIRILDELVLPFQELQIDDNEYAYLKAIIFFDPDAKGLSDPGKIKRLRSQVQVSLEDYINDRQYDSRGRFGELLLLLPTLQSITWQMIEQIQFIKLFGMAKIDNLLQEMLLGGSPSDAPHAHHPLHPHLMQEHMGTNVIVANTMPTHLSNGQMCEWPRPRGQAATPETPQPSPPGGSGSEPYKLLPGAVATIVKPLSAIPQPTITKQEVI
The settings on record: cited from earlier work.

Regarding `O=C(/C=C/c1ccc(O)c(O)c1)NCCc1ccc(O)cc1` [NCT, N-trans caffeoyltyramine], in the data set with VDAC1, the “VDAC1 level in liver” value was “reverse the depression”. Besides, in the data set with citrate synthase, the “citrate synthase level in liver” value is “reverse the depression”. Moreover, the “HSP60 mRNA level in liver” value in the data set with HSP60 mRNA is “reverse the induction”. Moreover, the “PPARGC1A(PGC1a) mRNA level in mouse liver” value in the data set on PPARGC1A mRNA was “increase”. Besides, in the data set with Sirt1 mRNA, the “Sirt1 mRNA in mouse liver” value is recorded as “reverse the depression”. The “expression level of ILIβ in mouse liver” value is listed as “non-significant” with ILIβ mRNA and “not affect” with ILIβ mRNA (listed as Compound A). For the same compound, the “blood alanine transaminase (ALT) level” value in data set [1] was “decrease”. Further, the “Sirt3 mRNA in primary human hepatocytes” value in the data set on Sirt3 mRNA was “reverse the depression”. Moreover, the “specificity for HNF4α” value at HNF4α (HNF4α siRNA ablates their effect) was “exhibit specificity for HNF4α”. Besides, the “activation of HNF4α, potency compared with Alverine and Benfluorex” value at HNF4α is listed as “much more potent activators”.
